Measured values taken from PubChem BioAssay (NCI).
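The concentration for 50% growth inhibition is given as GI50. Definition used: TGI = concentration required for complete inhibition of growth.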

How the values were obtained:
Test in all cases: growth of human tumour cells (NCI), 384-well format
HL-60(TB) leukemia = test system: HL-60(TB) leukemia
NCI-H460 NSCLC = test system: NCI-H460 NSCLC
PC-3 prostate = test system: PC-3 prostate
OVCAR-8 ovarian = test system: OVCAR-8 ovarian
ACHN renal = test system: ACHN renal
SK-OV-3 ovarian = test system: SK-OV-3 ovarian
KM12 colon = test system: KM12 colon
HOP-92 NSCLC = test system: HOP-92 NSCLC
CAKI-1 renal = test system: CAKI-1 renal
U251 glioblastoma = test system: U251 glioblastoma
MCF7 breast = test system: MCF7 breast
SF-295 CNS = test system: SF-295 CNS
OVCAR-3 ovarian = test system: OVCAR-3 ovarian

C[C@H](N)C(=O)N1C[C@H](CCCB(O)O)[C@](N)(C(=O)O)C1 showed a GI50 (HL-60(TB) leukemia) of over 87.2 µM, a TGI (HL-60(TB) leukemia) of over 100 µM and a GI50 (NCI-H460 NSCLC) of over 100 µM. It also gave a TGI (NCI-H460 NSCLC) of over 100 µM, a GI50 (PC-3 prostate) of over 100 µM and a TGI (PC-3 prostate) of over 100 µM. For the same compound, the GI50 (OVCAR-8 ovarian) was over 100 µM, the TGI (OVCAR-8 ovarian) was over 100 µM and the GI50 (ACHN renal) was over 100 µM. It also gave a TGI (ACHN renal) of over 100 µM, a GI50 (SK-OV-3 ovarian) of over 100 µM and a TGI (SK-OV-3 ovarian) of over 100 µM. It also gave a GI50 (KM12 colon) of over 100 µM, a TGI (KM12 colon) of over 100 µM and a GI50 (HOP-92 NSCLC) of over 100 µM. It also gave a TGI (HOP-92 NSCLC) of over 100 µM, a GI50 (CAKI-1 renal) of over 100 µM and a TGI (CAKI-1 renal) of over 100 µM. It also gave a GI50 (U251 glioblastoma) of over 100 µM, a TGI (U251 glioblastoma) of over 100 µM and a GI50 (MCF7 breast) of over 100 µM. For the same compound, the TGI (MCF7 breast) was over 100 µM, the GI50 (SF-295 CNS) was over 100 µM and the TGI (SF-295 CNS) was over 100 µM. For the same compound, the GI50 (OVCAR-3 ovarian) was over 100 µM and the TGI (OVCAR-3 ovarian) was over 100 µM.
